# In patent US20110281854A1, “MORPHOLINE COMPOUNDS” (Pfizer Inc, priority 2010, published 2011):
# Biological target: T1, MR (Homo sapiens, UniProt P08235)
# T1 construct: expressed in transfected cells; host or cells: Huh7 human liver cells (ATCC), transient transfection with FuGENE 6
# T1 sequence (P08235 726-964 limits assumed): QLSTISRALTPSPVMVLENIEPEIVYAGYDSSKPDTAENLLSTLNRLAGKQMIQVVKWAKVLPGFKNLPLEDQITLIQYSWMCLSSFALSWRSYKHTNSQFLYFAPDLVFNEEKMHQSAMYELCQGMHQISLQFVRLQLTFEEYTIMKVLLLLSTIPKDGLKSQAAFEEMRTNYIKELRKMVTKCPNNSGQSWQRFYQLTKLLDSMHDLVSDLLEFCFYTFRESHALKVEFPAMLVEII
# Assay: Cell-based reporter assay (Gal4-MR-LBD luciferase, antagonist mode)
# Settings: not given
# Description: To measure the ability of test compound in the present invention to modulate the activity of MR (agonize, antagonize, partially agonize, partially antagonize), bioassays were performed that measured the modulation of reporter gene expression. Cells were transiently transfected with a luciferase reporter gene under the control of a Gal4 response element (Gal4-RE-luc) and a plasmid containing the Gal4 DNA binding domain fused to the MR ligand binding domain (Gal4-MR-LBD). Agonists can bind to and activate the MR-LBD, which activates the expression of the luciferase reporter gene through interaction with the Gal4 response element. […] Antagonists can compete for binding to the NHR-LBD and decrease the agonist-induced transcriptional activity of the reporter gene. Therefore, measurement of luciferase activity allowed quantitative determinations of the reporter transcription in the presence of either agonists or competitive antagonists.
# The final concentration of DMSO in the test plate was 0.5%. Following an overnight incubation with compound, 25 μL of Steady-Glow™ lysis buffer with luciferase substrate (Promega Corporation, E2550) was added directly to the cells. After a 30-minute incubation to completely lyse the cells, the microplates were counted in an Envision™ Multilabel Reader (Perkin Elmer) in single photon counting mode.
row,IC50 [nM],Compound
1,63.6,"C[C@H]1CN(c2ccc3c(n2)NC(=O)CO3)[C@@H](c2ccccc2F)CO1 (racemic) [Example 7, (±)-6-(cis-5-(2-fluorophenyl)-2-methylmorpholino)-2H-pyrido[3,2-b][1,4]oxazin-3(4H)-one]"
2,3050,"CC1CN(c2ccc3c(n2)NC(=O)CO3)CCO1 (racemic) [Example 17, 6-(2-methylmorpholino)-2H-pyrido[3,2-b][1,4]oxazin-3(4H)-one]"
3,111,"C[C@H]1CN(c2cc3c(cn2)OCC(=O)N3)[C@@H](c2ccccc2F)CO1 (racemic) [Example 32, (±)-7-(cis-5-(2-fluorophenyl)-2-methylmorpholino)-1H-pyrido[3,4-b][1,4]oxazin-2(3H)-one]"
4,146,"C[C@H]1CN(c2ncc3c(n2)NC(=O)CO3)[C@@H](c2ccccc2F)CO1 (racemic) [Example 34, (±)-2-(cis-5-(2-fluorophenyl)-2-methylmorpholino)-6H-pyrimido[5,4-b][1,4]oxazin-7(8H)-one]"
5,272,"C[C@H]1CN(c2cc3c(cn2)OCC(=O)N3)[C@@H](c2cccc(F)c2)CO1 (racemic) [Example 50, (±)-7-(cis-5-(3-fluorophenyl)-2-methylmorpholino)-1H-pyrido[3,4-b][1,4]oxazin-2(3H)-one]"
6,537,"C[C@H]1CN(c2ncc3c(n2)NC(=O)CO3)[C@@H](c2cccc(F)c2)CO1 (racemic) [Example 51, (±)-2-(cis-5-(3-fluorophenyl)-2-methylmorpholino)-6H-pyrimido[5,4-b][1,4]oxazin-7(8H)-one]"
7,7910,"COc1ccccc1[C@H]1CO[C@@H](C)CN1c1cc2c(cn1)OCC(=O)N2 (racemic) [Example 62, (±)-7-(cis-5-(2-methoxyphenyl)-2-methylmorpholino)-1H-pyrido[3,4-b][1,4]oxazin-2(3H)-one]"
8,449,"C[C@H]1CN(c2ncc3c(n2)NC(=O)CO3)[C@@H](c2ccccc2Cl)CO1 (racemic) [Example 64, (±)-2-(cis-5-(2-chlorophenyl)-2-methylmorpholino)-6H-pyrimido[5,4-b][1,4]oxazin-7(8H)-one]"
9,631,"C[C@H]1CN(c2cc3c(cn2)OCC(=O)N3)[C@@H](c2ccccc2Cl)CO1 (racemic) [Example 65, (±)-7-(cis-5-(2-chlorophenyl)-2-methylmorpholino)-1H-pyrido[3,4-b][1,4]oxazin-2(3H)-one]"
10,451,"C[C@H]1CN(c2ccc3c(n2)NC(=O)CO3)[C@@H](c2ccccc2Cl)CO1 (racemic) [Example 66, (±)-6-(cis-5-(2-chlorophenyl)-2-methylmorpholino)-2H-pyrido[3,2-b][1,4]oxazin-3(4H)-one]"
11,1100,"O=C1COc2ccc(N3CCOC[C@H]3c3ccc(F)cc3)nc2N1 (single isomer, unassigned) [Example 14]"
12,2710,"C[C@H]1CN(c2ccc3c(n2)NC(=O)CO3)CCO1 (single isomer, unassigned) [Example 18]"
13,5610,"C[C@@H]1CN(c2ccc3c(n2)NC(=O)CO3)CCO1 (single isomer, unassigned) [Example 19]"
14,885,"Cc1cc(N2CCOC[C@H]2c2ccccc2)cc2c1OCC(=O)N2 (single isomer, unassigned) [Example 22]"
15,284,"C[C@@H]1CN(c2ccc3c(n2)NC(=O)CO3)[C@@H]2c3ccccc3C[C@@H]2O1 (single isomer, unassigned) [Example 23]"
16,1770,"C[C@H]1CN(c2ccc3c(n2)NC(=O)CO3)[C@@H]2c3ccccc3C[C@@H]2O1 (single isomer, unassigned) [Example 24]"
17,53.9,"C[C@@H]1CN(c2cc3c(cn2)OCC(=O)N3)[C@H](c2ccccc2F)CO1 (single isomer, unassigned) [Example 33]"
18,104,"C[C@@H]1CN(c2ncc3c(n2)NC(=O)CO3)[C@H](c2ccccc2F)CO1 (single isomer, unassigned) [Example 35]"
19,135,"C[C@@H]1CN(c2ccc3c(n2)NC(=O)CO3)[C@H](c2ccccc2Cl)CO1 (single isomer, unassigned) [Example 67]"

row,IC50 [nM],Compound
1,266,"C[C@@H]1CN(c2ncc3c(n2)NC(=O)CO3)[C@H](c2ccccc2)CO1 [Example 2, 2-((2R,5R)-2-methyl-5-phenylmorpholino)-6H-pyrimido[5,4-b][1,4]oxazin-7(8H)-one]"
2,157,"C[C@@H]1CN(c2ccc3ncc(=O)[nH]c3c2)[C@H](c2ccccc2)CO1 [Example 3, 7-((2R,5R)-2-methyl-5-phenylmorpholino)quinoxalin-2(1H)-one]"
3,306,"C[C@@H]1CN(c2ccc3c(c2)NC(=O)CS3)[C@H](c2ccccc2)CO1 [Example 4, 6-((2R,5R)-2-methyl-5-phenylmorpholino)-2H-benzo[b][1,4]thiazin-3(4H)-one]"
4,174,"Cc1cc(N2C[C@@H](C)OC[C@H]2c2ccccc2)nc2c1OCC(=O)N2 [Example 5, 8-methyl-6-((2R,5R)-2-methyl-5-phenylmorpholino)-2H-pyrido[3,2-b][1,4]oxazin-3(4H)-one]"
5,977,"C[C@@H]1CN(c2ccc3c(n2)NCCO3)[C@H](c2ccccc2)CO1 [Example 6, 6-[(2R,5R)-2-methyl-5-phenylmorpholin-4-yl]-3,4-dihydro-2H-pyrido[3,2-b][1,4]oxazine]"
6,407,"CC1(C)CN(c2ccc3c(n2)NC(=O)CO3)[C@H](c2ccccc2)CO1 [Example 13, (R)-6-(2,2-dimethyl-5-phenylmorpholino)-2H-pyrido[3,2-b][1,4]oxazin-3(4H)-one]"
7,1970,"O=C1COc2ccc(N3CCOC[C@H]3c3ccccc3)nc2N1 [Example 16, (R)-6-(3-phenylmorpholino)-2H-pyrido[3,2-b][1,4]oxazin-3(4H)-one]"
8,3000,"O=C1COc2ccc(N3CCO[C@H]4Cc5ccccc5[C@H]43)nc2N1 [Example 20, 6-((4aR,9aS)-2,3,9,9a-tetrahydroindeno[2,1-b][1,4]oxazin-4(4aH)-yl)-2H-pyrido[3,2-b][1,4]oxazin-3(4H)-one]"
9,583,"O=C1COc2ccc(N3CCOC[C@H]3c3ccccc3)cc2N1 [Example 21, (R)-6-(3-phenylmorpholino)-2H-benzo[b][1,4]oxazin-3(4H)-one]"
10,798,"C[C@@H]1CN(c2ccc3c(n2)NC(=O)CO3)C[C@H](C)O1 [Example 25, 6-(cis-2,6-dimethylmorpholino)-2H-pyrido[3,2-b][1,4]oxazin-3(4H)-one]"
11,3370,"CCC1CN(c2ccc3c(n2)NC(=O)CO3)CCO1 (stereo not shown) [Example 26, 6-(2-ethylmorpholino)-2H-pyrido[3,2-b][1,4]oxazin-3(4H)-one]"
12,1230,"C[C@@H]1CN(c2cccc(NS(C)(=O)=O)n2)[C@H](c2ccccc2)CO1 [Example 27, N-(6-((2R,5R)-2-methyl-5-phenylmorpholino)pyridin-2-yl)methanesulfonamide]"
13,24,"C[C@@H]1CN(c2ccc3c(c2)NC(=O)CO3)[C@H](c2ccccc2)CO1 [Example 28, 6-((2R,5R)-2-methyl-5-phenylmorpholino)-2H-benzo[b][1,4]oxazin-3(4H)-one]"
14,9560,"C[C@@H]1CN(c2ccc3c(n2)NC(=O)C(F)(F)O3)[C@H](c2ccccc2)CO1 [Example 30, 2,2-difluoro-6-((2R,5R)-2-methyl-5-phenylmorpholino)-2H-pyrido[3,2-b][1,4]oxazin-3(4H)-one]"
15,913,"O=C1COc2ccc(N3C[C@@H](C4CC4)OC[C@H]3c3ccccc3)nc2N1 [Example 31, 6-((2R,5R)-2-cyclopropyl-5-phenylmorpholino)-2H-pyrido[3,2-b][1,4]oxazin-3(4H)-one]"
16,1740,"O=C1COc2ccc(N3CCOCC34CCc3ccccc34)nc2N1 (stereo not shown) [Example 36, 6-(2,3-dihydrospiro[indene-1,3′-morpholin]-4′-yl)-2H-pyrido[3,2-b][1,4]oxazin-3(4H)-one]"
17,1440,"C[C@@H]1CN(c2nc3c(cc2F)OCC(=O)N3)[C@H](c2ccccc2)CO1 [Example 37, 7-fluoro-6-((2R,5R)-2-methyl-5-phenylmorpholino)-2H-pyrido[3,2-b][1,4]oxazin-3(4H)-one]"
18,4970,"CC1(c2ccccc2)CN(c2ccc3c(c2)NC(=O)CO3)CCO1 (stereo not shown) [Example 38, 6-(2-methyl-2-phenylmorpholino)-2H-benzo[b][1,4]oxazin-3(4H)-one]"
19,86.7,"O=C1COc2ccc(N3C[C@@H](CF)OC[C@H]3c3ccccc3)nc2N1 [Example 39, 6-((2S,5R)-2-(fluoromethyl)-5-phenylmorpholino)-2H-pyrido[3,2-b][1,4]oxazin-3(4H)-one]"

row,Compound,IC50 [nM]
1,"C[C@@H]1CN(c2ccc3c(n2)NC(=O)CO3)[C@H](c2ccccc2F)CO1 (single isomer, unassigned) [Example 8]",33.4

# Same assay, conditions: antagonist mode; decrease of EC80 aldosterone signal by 50%; Huh7 cells transfected with Gal4-MR-LBD and Gal4-RE-luc
row,Compound,IC50 [nM]
1,"6-((2S,5R)-2-(methoxymethyl)-5-phenylmorpholino)-2H-pyrido[3,2-b][1,4]oxazin-3(4H)-one [Example 49]",358
